Holding throughout (experiment): DTP human tumour cell line panel, 48 h
The test system of assay [1] is CAKI-1 renal.
Assay [2] has as its system HL-60(TB) leukemia.
Assay [3] deals with KM12 colon.
Assay [4] concerns RXF 393 renal.
Assay [5] concerns SF-295 CNS.
In assay [6] the test system is SK-OV-3 ovarian.
For assay [7], the system named is SNB-19 CNS.
Assay [8] has as its system LOX IMVI melanoma.

Consider 15 molecules from PubChem BioAssay (NCI).

Each structure is given as a SMILES string.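 Cultured in 96-well plates, cells were exposed to test compound for 48 hours across five concentrations. GI50: concentration for 50% inhibition of growth. The concentration for full growth arrest is given as TGI.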

With `Cn1c(=O)nc2n(-c3cccc(Br)c3)c3ccccc3nc-2c1=O`, the TGI (as a rule, the concentration giving total growth inhibition) was 32.7 µM in assay [1]; 9.76 µM in assay [2]; 21 µM in assay [3]; 24 µM in assay [4]; 18.6 µM in assay [5]; 50.5 µM in assay [6]. The molecule also registered a TGI in assay [7] of 6.86 µM.
In the case of `N#CC(C(=O)CCC(=O)C(C#N)c1ccccc1)c1ccccc1` (stereo not given), the TGI in assay [1], in assay [2], in assay [3], in assay [8], in assay [4] and in assay [5] was over 100 µM throughout. Besides, the TGI in assay [6] and in assay [7] was over 100 µM in each case.
Regarding `COC(=O)C(=O)OC1(C(C)=O)CC2(c3ccccc3)OC1(c1ccccc1)c1ccccc12` (stereo not given), the TGI was 39.9 µM in assay [1]; over 100 µM in assay [2]; 30.4 µM in assay [8]; 29 µM in assay [4]; 31.4 µM in assay [5]; 95.5 µM in assay [6]. The TGI in assay [7] was 47.3 µM.
With `CC1(c2cccc3ccccc23)OC(=O)c2ccccc21` (stereo not given), the TGI in assay [1] is 51 µM; in assay [2] it was 43.4 µM; in assay [3], over 100 µM; in assay [8] it was 42.8 µM; in assay [4] it was 46.1 µM; in assay [5], 54.5 µM. Further, the total growth inhibition concentration (TGI) in assay [6] is 75.8 µM; in assay [7], over 100 µM.
As to `CCCCCCCCCCCCCC(=O)CC(=O)c1c(O)cccc1O`, the TGI was 76.1 µM in assay [1]; 41.7 µM in assay [2]; over 100 µM in assay [3]; 36.3 µM in assay [8]; over 100 µM in assay [4]; over 100 µM in assay [5]. Moreover, the figures for the TGI in assay [6] and in assay [7] were over 100 µM and 99.2 µM, respectively.
`CCCCCC/C=C1\CCC(CN2CCCC2)C1=O` (stereo not given): the TGI in assay [1] is over 53.5 µM; in assay [3] it was 13.3 µM; in assay [8] it was 22.4 µM; in assay [4] it was 33.5 µM; in assay [5], 34.1 µM; in assay [6], 33 µM. In assay [7], this molecule had a TGI of over 52.9 µM.
On to `CCOc1ccccc1NC(=O)CC1SC(=Nc2ccc([N+](=O)[O-])cc2)NC1=O` (stereo not given), for which the TGI was over 100 µM in assay [2]; 37 µM in assay [3]; 47.1 µM in assay [8]; 39.7 µM in assay [4]; 34.9 µM in assay [5]; over 100 µM in assay [7].
For `CCc1c(C#N)c(S[C@@H](C(N)=O)c2ccccc2)nc(N(C)C)c1C#N`, the GI50 – broadly, the concentration giving 50% growth inhibition – was 12.9 µM in assay [1]; over 100 µM in assay [3]; over 100 µM in assay [8]; 4.51 µM in assay [4]; 3.81 µM in assay [5]; 6.65 µM in assay [6]. Further, the GI50 in assay [7] was 3.46 µM. Further, the TGI was over 100 µM in assay [1]; over 100 µM in assay [3]; over 100 µM in assay [8]; 51.9 µM in assay [4]; 55.3 µM in assay [5]; over 100 µM in assay [6]. Further, the TGI in assay [7] was found to be 21.5 µM.
Consider `O=C(CC1(O)C(=O)Nc2c(Cl)ccc(Cl)c21)c1ccc2ccccc2c1` (stereo not given), for which the TGI was determined as 16.5 µM in assay [1]; 4.04 µM in assay [2]; 17.8 µM in assay [3]; 31.9 µM in assay [8]; 27 µM in assay [4]; 27.7 µM in assay [5]. In addition, the TGI in assay [6] came out at 33.5 µM; in assay [7] it was 53 µM.
On to `BrC1=CC=C2NC=CC3=CC=NC1C32` (stereo not given), for which the TGI was 12.1 µM in assay [2]; over 100 µM in assay [3]; 21.4 µM in assay [8]; 51.7 µM in assay [4]; over 100 µM in assay [5]; over 100 µM in assay [6]. In assay [7], the total growth inhibition concentration (TGI) is over 75 µM.
As for `O=[N+]([O-])c1nccn1CC(O)CN1CC1` (stereo not given), the TGI in assay [1] is over 100 µM; in assay [2], 73.1 µM; in assay [3], over 100 µM; in assay [4] it was 98.2 µM; in assay [5] it was over 100 µM; in assay [6], 94.7 µM. In addition, the TGI in assay [7] is over 100 µM.
On to `CC(=O)[CH-]C(=O)c1ccccc1.CC(=O)[CH-]C(=O)c1ccccc1.CC(C)CCCC(C)[C@H]1CCC2[C@@H]3CC=C4C[C@@H]([O-])CC[C@]4(C)C3CC[C@@]21C.CC[O-].[Ti+4]` (stereo not given in full), for which the GI50 was over 100 µM in assay [1]; 42.3 µM in assay [2]; 39.6 µM in assay [3]; 81.1 µM in assay [8]; 40.9 µM in assay [5]; over 100 µM in assay [6]. The GI50 in assay [7] is 32.6 µM. Also, the TGI in assay [1], in assay [2], in assay [3], in assay [8], in assay [5] and in assay [6] was over 100 µM each time. In assay [7], the TGI is over 100 µM.
In the case of `Oc1cc(O)c2c(-c3c(O)c(-c4ccc(O)c(O)c4)[o+]c4cc(O)cc(O)c34)c(O)c(-c3ccc(O)c(O)c3)[o+]c2c1`, the TGI is 95.6 µM in assay [1]; over 100 µM in assay [3]; over 100 µM in assay [8]; 81.1 µM in assay [4]; over 100 µM in assay [5]; over 100 µM in assay [6]. The TGI in assay [7] is over 100 µM.
On to `O=C1NC(=O)C2C(=O)NC(=O)C1C2(c1ccccc1)c1cc[nH]c1` (stereo not given), for which the TGI in assay [1], in assay [2], in assay [3], in assay [8], in assay [4] and in assay [5] was over 100 µM throughout. Besides, the TGI in assay [6] and in assay [7] was over 100 µM throughout.
`CN(C)c1ccc([O][Bi]([Cl])[Cl])cc1`: the GI50 in assay [1] was over 100 µM; in assay [3], over 100 µM; in assay [8], over 100 µM; in assay [4] it was 82.2 µM; in assay [5] it was over 100 µM; in assay [6] it was over 100 µM. Moreover, in assay [7], the GI50 was over 100 µM. The TGI in assay [1], in assay [3], in assay [8], in assay [4], in assay [5] and in assay [6] was over 100 µM throughout. Besides, the TGI in assay [7] was over 100 µM.
